The values below are quoted from earlier work in US20170266090A1, “ANTIMICROBIAL COMPOSITIONS THAT ARE DERMATOLOGICALLY NON-DRYING” (Marvel Technologies USA, LLC, priority 2016, published 2017).

The conditions of this data set: background statement, no source given.

In the case of `CCO` [Ethanol], the Drying time result was “eight to thirteen”.
